This is an account of results in ChEMBL document CHEMBL1275248, “Two novel antibiotic resistance genes, tet(44) and ant(6)-Ib, are located within a transferable pathogenicity island in Campylobacter fetus subsp. fetus” (2010).

Experiment [1] can be described thus: Antimicrobial activity against kanamycin-resistant Campylobacter fetus subsp. fetus CA76 harboring deletion in ant(6)-Ib::pCA76 in presence of 5% lacked horse blood. The experiment is classed as functional.
Experiment [2] is described as follows: Antimicrobial activity against Campylobacter fetus subsp. fetus CA73 harboring pCA73 carrying tet(44) resistance gene of 1516477 in presence of 5% lacked horse blood. The experiment is classed as functional.
A short description of experiment [3]: Antimicrobial activity against Campylobacter fetus subsp. fetus CA75 harboring pCA75 carrying ant(6)-Ib resistant gene of 1516477 in presence of 5% lacked horse blood. It is filed as functional.
Experiment [4] can be described thus: Antimicrobial activity against nalidixic acid-resistant Campylobacter fetus subsp. fetus IMD523-06 bovine isolate harboring tet(44) and ant(6)-Ib resistance gene in presence of 5% lacked horse blood. It is filed as functional.
Experiment [5] is described as follows: Antimicrobial activity against ciprofloxacin-resistant Campylobacter fetus subsp. fetus 1516477 human isolate lacking tet(44) and ant(6)-Ib resistance genes in presence of 5% lacked horse blood.
A short description of experiment [6]: Antimicrobial activity against kanamycin-resistant Campylobacter fetus subsp. fetus CA74 harboring deletion in tet(44)::pCA64 resistant gene in presence of 5% lacked horse blood. The experiment is classed as functional.
A short description of experiment [7]: Antimicrobial activity against Campylobacter fetus subsp. fetus CA80 harboring ciprofloxacin-resistant gene and IMD523-06 pathogenicity island with tet(44) and ant(6)-Ib resistant marker gene in presence of 5% lacked horse blood. The experiment is classed as functional.

For `CN[C@@H]1[C@H](O[C@H]2[C@H](O[C@H]3[C@H](O)[C@@H](O)[C@H](N=C(N)N)[C@@H](O)[C@@H]3N=C(N)N)O[C@@H](C)[C@]2(O)C=O)O[C@@H](CO)[C@H](O)[C@H]1O` [STREPTOMYCIN], the MIC was at most 1 µg/mL in experiment [1]; at most 1 µg/mL in experiment [2]; 64 µg/mL in experiment [3]; over 64 µg/mL in experiment [4]; at most 1 µg/mL in experiment [5]; over 64 µg/mL in experiment [6]. In experiment [7], the MIC came to 64 µg/mL.
On to `CN(C)[C@@H]1C(O)=C(C(N)=O)C(=O)[C@@]2(O)C(O)=C3C(=O)c4c(O)cccc4[C@@](C)(O)[C@H]3C[C@@H]12` [TETRACYCLINE], for which the MIC was 16 µg/mL in experiment [1]; over 32 µg/mL in experiment [2]; 1 µg/mL in experiment [3]; 16 µg/mL in experiment [4]; 1 µg/mL in experiment [5]; 1 µg/mL in experiment [6]. Moreover, the MIC in experiment [7] was determined as 16 µg/mL.
With `C[C@H]1c2cccc(O)c2C(=O)C2=C(O)[C@]3(O)C(=O)C(C(N)=O)=C(O)[C@@H](N(C)C)[C@@H]3[C@@H](O)[C@@H]21.O` [DOXYCYCLINE], the MIC in experiment [1] worked out at 8 µg/mL; in experiment [2] it was 32 µg/mL; in experiment [3] it was 0.5 µg/mL; in experiment [4] it was 8 µg/mL; in experiment [5] it was 0.5 µg/mL; in experiment [6] it was 0.5 µg/mL. Besides, in experiment [7], the MIC stood at 4 µg/mL.
`CN(C)c1ccc(O)c2c1C[C@H]1C[C@H]3[C@H](N(C)C)C(O)=C(C(N)=O)C(=O)[C@@]3(O)C(O)=C1C2=O` [MINOCYCLINE]: the MIC came out at 16 µg/mL in experiment [1]; 32 µg/mL in experiment [2]; 1 µg/mL in experiment [3]; 16 µg/mL in experiment [4]; 1 µg/mL in experiment [5]; 2 µg/mL in experiment [6]. Moreover, the MIC in experiment [7] came to 16 µg/mL.
